“And” between values parts separate entries of the source, which are not always exact repeats. Equal entries are not always repeated. Values belong to the compound of their own block, whether it stands above or below them.
Tests used:
[1] = tested on: HD model flies (elav-GAL4 UAS-htt128Q); assay: Assay of locomotor activity (climbing speed) using the transgenic Drosophila HD model; format: in vivo; design: Early Speed Effect Size, Summary / Late Speed Effect Size, Summary / Early Speed Effect Size / Late Speed Effect Size / Early Speed Adj Value / Late Speed Adj Value / Early Speed Effect Size, combined campaigns / Late Speed Effect Size, combined campaigns: unit not given here; details: for Early Speed Effect Size, combined campaigns / Early Speed Percent TSA, combined campaigns / Late Speed Effect Size, combined campaigns / Late Speed Percent TSA, combined campaigns: drawing 84, drawing 89
Description: Female “activator” or “driver” flies were engineered to contain the neuronal specific drivers elav-GAL4 or nirvana-GAL4 in a heat shock-hid Y (phs-hidY or HS-hid+ on Y chomosome) background (Starz-Gaiano et al., 2001). The hid gene is a pro-apoptotic gene, which is expressed in this line by a heat inducible promoter. These flies can be heat shocked in bottles twice over 2 days for 2 hours to kill male larvae and thereby produce massive numbers of elav-GAL4 or nirvana-GAL4 virgin females.
For the mass production of males (either UAS-htt128Q[F27B]/UAS-htt128Q[F27B], the disease transgenes were moved into lines that contain an attached X-chromosome with the same phs-hid element (X^XPhs-hidY) used above. In this scheme the hid gene is present only in female flies and therefore is used to produce large numbers of male flies by heat shock. The massive collection of virgin female elav-GAL4 flies are crossed with the massive collection of males that contain the silent disease-transgene. Their progeny, the F1 generation, are the “assay flies” (e.g., elav-GAL4UAS-htt128Q[F27B]). These assay flies are robotically distributed into drugged assay vials.
The HD Drosophila model express exons 1 to 4 of the human huntingtin gene with 128Q repeats in exon 1. The construct was cloned into the Drosophila transformation vector, pUAST. These were then crossed to GAL4 driver lines that direct expression either to the eye (GMR-GAL4 promoter) or to neurons (elav-GAL4 promoter). […] Progressive degeneration of the photoreceptors was observed after several days of adult life. The properties of the HD128Q flies were consistent with those reported by others for two other strains in which exon-1 containing expanded repeats was expressed in the eye (Jackson et al., 1998; Steffan et al., 2001—US20040142859). To test the effects on motor function of the HD mutation, HD128Q lines were examined in which the transgene was expressed in all neurons. Motor function was assayed by tapping flies in a vial to the bottom and measuring the number of flies that are able to climb to a specified height within a specific length of time. When tapped to the bottom of a vial, wild-type flies rapidly climb to the top, where most of them remain. […] The decline in motor performance was progressive, leading to early death. […] The HD128Q model thus has a functional deficit that in its phenotypic and neuropathological characteristics appears to be related to that seen in the human disease. Moreover, as the deficit is quantifiable and reproducible, it is suitable for automated high-throughput screening.
Standard environmental conditions were followed to establish that different metrics detect differences between disease and control flies. A comparison of compound-treated HD flies and untreated HD flies was also included. The positive control compound tested was the Histone Deacetylase (HDAC) inhibitor Trichostatin-A (TSA).
In an assay run (typically corresponding to one day of an entire multi-day assay) the following process was followed. Each tube was dropped onto a surface, causing the flies to fall to the bottom of the tube and be subjected to impact shock stimulation. Their immediate negative geotaxis response to that event was thereafter captured in a 7.5 second movie. For each tube, this step was repeated five times, giving a total of five repeat videos per tube and run. The raw data for each video were analyzed and trajectories following the movements of individual flies in a tube were generated. The method for analyzing fly trajectories is described in published U.S. Patent Application 2004/0076318A1, which is hereby incorporated by reference in its entirety. The trajectories consisted of a list of x- and y-coordinates mapping out the positions of all the flies in the video, as well as measurements of size, orientation, length and width of the flies, with one list entry for every frame from when the fly started moving in one frame until it stopped in another. […]

[2] = tested on: KA-induced lesion in C57B1/6N mice; details: intra-striatal KA, Cosi et al., 2004; cited from earlier work
[3] = conc 100, days 1 to 7, campaigns drawing 83
[4] = conc 100, days 8 to 10, campaigns drawing 83
[5] = conc 300, days 1 to 7, campaigns drawing 80, drawing 83, drawing 85, drawing 88
[6] = conc 300, days 8 to 10, campaigns drawing 80, drawing 83, drawing 85, drawing 88
[7] = food conc 100 (unit not printed; b38: μM), days 1 to 7, single campaigns
[8] = food conc 100, days 8 to 10, single campaigns
[9] = conc 100, days 1 to 7, campaigns drawing 80, drawing 83, drawing 88
[10] = conc 100, days 8 to 10, campaigns drawing 80, drawing 83, drawing 88
[11] = food conc 100, days 8 to 10, vs DMSO carrier, single campaigns
[12] = food conc 200, campaign drawing 91, day range not given, late by column position

Structure (SMILES): Cl.FC(F)(F)c1cccc(C(c2ccccc2)(c2ccccc2)n2ccnc2)c1 [1-(3-(trifluoromethyl)trityl)imidazole hydrochloride]
Effect in Drosophila model of HD ([1]; vs carrier controls, metrics early speed (days 1-7) and late speed (days 8-10)): had therapeutic effect

melting point: 205 °C
Structure (SMILES): Clc1ccccc1C(c1ccccc1)(c1ccccc1)N1CCOCC1 [Example 1(f), 4-[(2-Chlorophenyl)-diphenylmethyl]-morpholine]

melting point: 158 to 160 °C
Structure (SMILES): FC(F)(F)c1cccc(C(c2ccccc2)(c2ccccc2)N2CCOCC2)c1 [Example 1(g), 4-[(3-Trifluoromethylphenyl)-diphenylmethyl]-morpholine]

Structure (SMILES): NC(=O)c1ccccc1 [Benzamide]
KA-induced decreases in striatal levels of NAD+ and ATP [2]: partially prevented
KA-induced lesions and astrogliosis [2]: partially prevented

Structure (SMILES): FC(F)(F)c1cccc(C(c2ccccc2)(c2ccccc2)n2ccnc2)c1 [1-(3-(TRIFLUOROMETHYL)TRITYL)IMIDAZOLE, 1-(3-(trifluoromethyl)trityl)imidazole]
Early Speed Effect Size, combined campaigns [1, 3]: −0.159
Early Speed Percent TSA, combined campaigns [1, 3]: −4.3%
Late Speed Effect Size, combined campaigns [1, 4]: 0.344
Late Speed Percent TSA, combined campaigns [1, 4]: 7.6%
Early Speed Effect Size, combined campaigns [1, 5]: 1.003
Early Speed Percent TSA, combined campaigns [1, 5]: 45.6%
Late Speed Effect Size, combined campaigns [1, 6]: 1.798
Late Speed Percent TSA, combined campaigns [1, 6]: 68.2%
Early Speed Adj Value [1, 7]: 10.37 and 10.38 and 10.47
Late Speed Adj Value [1, 8]: 5.094 and 5.776 and 5.811
Early Speed Adj Value ([1]; food conc 300 (unit not given), days 1 to 7, single campaigns): 11.11 and 10.33 (2×) and 10.9 and 11.1 and 11.02
Late Speed Adj Value ([1]; food conc 300, days 8 to 10, single campaigns): 7.096 and 5.024 and 5.921 and 7.137 and 6.976 and 6.601
Late Speed Effect Size ([1]; food conc 300, days 8 to 10, vs DMSO carrier, single campaigns): 2.88 and 1.62 and 1.96

Structure (SMILES): c1ccc(C(c2ccccc2)(c2ccccc2)n2ccnc2)cc1 [1-triphenylmethyl imidazole]
Early Speed Effect Size, combined campaigns [1, 9]: 0.186
Early Speed Percent TSA, combined campaigns [1, 9]: 9.6%
Late Speed Effect Size, combined campaigns [1, 10]: 0.179
Late Speed Percent TSA, combined campaigns [1, 10]: 6.9%
Early Speed Adj Value [1, 7]: 10.62 and 9.998 and 10.71 and 11.18 and 10.51 and 10.31
Early Speed Adj Value ([1]; food conc 100 (unit not printed; b38: μM), days 1 to 7, single campaigns, listed as 1-(triphenylmethyl)imidazole): 10.62 and 10.71
Late Speed Adj Value [1, 8]: 5.547 and 5.811 and 4.932 and 5.407 and 5.092 and 5.877
Late Speed Adj Value ([1]; food conc 100, days 8 to 10, single campaigns, listed as 1-(triphenylmethyl)imidazole): 5.81 and 5.41
Late Speed Effect Size [1, 11]: 0.86 and 0.62

Structure (SMILES): Fc1ccc(C(c2ccccc2)(c2ccc(F)cc2)n2ccnc2)cc1
Early Speed Effect Size ([1]; food conc 50 (unit not printed; b38: μM), days 1 to 7, vs DMSO carrier, single campaigns): 0.31
Early Speed Percent TSA ([1]; food conc 50, days 1 to 7, effect size as percentage of positive control TSA, single campaigns): 16.8%
Late Speed Percent TSA ([1]; food conc 50, days 8 to 10, effect size as percentage of TSA, single campaigns): 12.5%
Late Speed Effect Size ([1]; food conc 50, days 8 to 10, vs DMSO carrier, single campaigns): 0.33
Early Speed Percent TSA ([1]; food conc 100, days 1 to 7, effect size as percentage of TSA, single campaigns): 56.8%
Early Speed Effect Size ([1]; food conc 100, days 1 to 7, vs DMSO carrier, single campaigns): 1.04
Late Speed Percent TSA ([1]; food conc 100, days 8 to 10, effect size as percentage of TSA, single campaigns): 49.9%
Late Speed Effect Size [1, 11]: 1.32
Early Speed Effect Size ([1]; food conc 200 (unit not given), campaign drawing 91, day range not given, early by column position): 1.23
Early Speed Percent TSA ([1]; food conc 200, campaign drawing 91, day range not given, early by column position): 67.2%
Late Speed Effect Size [1, 12]: 0.8
Late Speed Percent TSA [1, 12]: 30.2%

Source: patent US20070037800A1, “Method of treating neurological disorders using clotrimazole and derivatives thereof” (EnVivo Pharmaceuticals, Inc., priority 2005, published 2007)
